What was measured:
Test in all cases: relative viability (nuclei count vs DMSO), 5 days (fraction); higher = more cells survive
EKVX = test system: EKVX
Summary of the method: (§1)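 Lung cancer cell lines, seeded in 1536-well plates, were treated the following day by pin tool with a single drug or with five library-drug doses (not always all listed) in √10 steps on top of a fixed anchor-drug dose. Cells were fixed and nuclei stained in one step after 5 days, and nuclei were counted. Relative viability is the nuclei count for treated wells divided by that for vehicle wells, reported as medians of duplicate plates.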

LCLC-97TM1 = test system: LCLC-97TM1
Summary of the method: as §1

NCI-H1437 = test system: NCI-H1437
Summary of the method: as §1

NCI-H1650 = test system: NCI-H1650
Summary of the method: as §1

NCI-H1666 = test system: NCI-H1666
Summary of the method: as §1

NCI-H1792 = test system: NCI-H1792
Summary of the method: as §1

NCI-H1915 = test system: NCI-H1915
Summary of the method: as §1

NCI-H1975 = test system: NCI-H1975
Summary of the method: as §1

NCI-H23 = test system: NCI-H23
Summary of the method: as §1

NCI-H322M = test system: NCI-H322M
Summary of the method: as §1

NCI-H358 = test system: NCI-H358
Summary of the method: as §1

NCI-H441 = test system: NCI-H441
Summary of the method: as §1

NCI-H460 = test system: NCI-H460
Summary of the method: as §1

NCI-H520 = test system: NCI-H520
Summary of the method: as §1

NCI-H596 = test system: NCI-H596
Summary of the method: as §1

NCI-H647 = test system: NCI-H647
Summary of the method: as §1

NCI-H661 = test system: NCI-H661
Summary of the method: as §1

NCI-H727 = test system: NCI-H727
Summary of the method: as §1

NCI-H838 = test system: NCI-H838
Summary of the method: as §1

PC-3 [JPC-3] = test system: PC-3 [JPC-3]
Summary of the method: as §1

SK-LU-1 = test system: SK-LU-1
Summary of the method: as §1

## CCNC(=O)c1noc(-c2cc(C(C)C)c(O)cc2O)c1-c1ccc(CN2CCOCC2)cc1 [Luminespib] + CS(=O)(=O)N1CCN(Cc2cc3nc(-c4cccc5[nH]ncc45)nc(N4CCOCC4)c3s2)CC1 [Pictilisib] (partner 1 µM)
EKVX; first compound 0.002 µM
  relative viability: 0.392
EKVX; first compound 0.006325 µM
  relative viability: 0.46
EKVX; first compound 0.02 µM
  relative viability: 0.229
EKVX; first compound 0.06325 µM
  relative viability: 0.226
EKVX; first compound 0.2 µM
  relative viability: 0.0934
LCLC-97TM1; first compound 0.002 µM
  relative viability: 0.17
LCLC-97TM1; first compound 0.006325 µM
  relative viability: 0.223
LCLC-97TM1; first compound 0.02 µM
  relative viability: 0.113
LCLC-97TM1; first compound 0.06325 µM
  relative viability: 0.103
LCLC-97TM1; first compound 0.2 µM
  relative viability: 0.0923
NCI-H1437; first compound 0.002 µM
  relative viability: 0.343
NCI-H1437; first compound 0.006325 µM
  relative viability: 0.495
NCI-H1437; first compound 0.02 µM
  relative viability: 0.249
NCI-H1437; first compound 0.06325 µM
  relative viability: 0.133
NCI-H1437; first compound 0.2 µM
  relative viability: 0.0978
NCI-H1650; first compound 0.002 µM
  relative viability: 0.593
NCI-H1650; first compound 0.006325 µM
  relative viability: 0.653
NCI-H1650; first compound 0.02 µM
  relative viability: 0.199
NCI-H1650; first compound 0.06325 µM
  relative viability: 0.129
NCI-H1650; first compound 0.2 µM
  relative viability: 0.106
NCI-H1666; first compound 0.002 µM
  relative viability: 0.423
NCI-H1666; first compound 0.006325 µM
  relative viability: 0.375
NCI-H1666; first compound 0.02 µM
  relative viability: 0.315
NCI-H1666; first compound 0.06325 µM
  relative viability: 0.235
NCI-H1666; first compound 0.2 µM
  relative viability: 0.145
NCI-H1792; first compound 0.002 µM
  relative viability: 0.302
NCI-H1792; first compound 0.006325 µM
  relative viability: 0.273
NCI-H1792; first compound 0.02 µM
  relative viability: 0.13
NCI-H1792; first compound 0.06325 µM
  relative viability: 0.124
NCI-H1792; first compound 0.2 µM
  relative viability: 0.0905
NCI-H1915; first compound 0.002 µM
  relative viability: 0.939
NCI-H1915; first compound 0.006325 µM
  relative viability: 0.729
NCI-H1915; first compound 0.02 µM
  relative viability: 0.567
NCI-H1915; first compound 0.06325 µM
  relative viability: 0.827
NCI-H1915; first compound 0.2 µM
  relative viability: 0.062
NCI-H1975; first compound 0.002 µM
  relative viability: 0.26
NCI-H1975; first compound 0.006325 µM
  relative viability: 0.257
NCI-H1975; first compound 0.02 µM
  relative viability: 0.135
NCI-H1975; first compound 0.06325 µM
  relative viability: 0.115
NCI-H1975; first compound 0.2 µM
  relative viability: 0.106
NCI-H23; first compound 0.002 µM
  relative viability: 0.475
NCI-H23; first compound 0.006325 µM
  relative viability: 0.486
NCI-H23; first compound 0.02 µM
  relative viability: 0.374
NCI-H23; first compound 0.06325 µM
  relative viability: 0.134
NCI-H23; first compound 0.2 µM
  relative viability: 0.157
NCI-H322M; first compound 0.002 µM
  relative viability: 0.497
NCI-H322M; first compound 0.006325 µM
  relative viability: 0.525
NCI-H322M; first compound 0.02 µM
  relative viability: 0.447
NCI-H322M; first compound 0.06325 µM
  relative viability: 0.485
NCI-H322M; first compound 0.2 µM
  relative viability: 0.3
NCI-H358; first compound 0.002 µM
  relative viability: 0.342
NCI-H358; first compound 0.006325 µM
  relative viability: 0.311
NCI-H358; first compound 0.02 µM
  relative viability: 0.222
NCI-H358; first compound 0.06325 µM
  relative viability: 0.133
NCI-H358; first compound 0.2 µM
  relative viability: 0.124
NCI-H441; first compound 0.002 µM
  relative viability: 0.479
NCI-H441; first compound 0.006325 µM
  relative viability: 0.513
NCI-H441; first compound 0.02 µM
  relative viability: 0.425
NCI-H441; first compound 0.06325 µM
  relative viability: 0.104
NCI-H441; first compound 0.2 µM
  relative viability: 0.0836
NCI-H460; first compound 0.002 µM
  relative viability: 0.35
NCI-H460; first compound 0.006325 µM
  relative viability: 0.243
NCI-H460; first compound 0.02 µM
  relative viability: 0.372
NCI-H460; first compound 0.06325 µM
  relative viability: 0.116
NCI-H460; first compound 0.2 µM
  relative viability: 0.0892
NCI-H520; first compound 0.002 µM
  relative viability: 0.298
NCI-H520; first compound 0.006325 µM
  relative viability: 0.334
NCI-H520; first compound 0.02 µM
  relative viability: 0.209
NCI-H520; first compound 0.06325 µM
  relative viability: 0.176
NCI-H520; first compound 0.2 µM
  relative viability: 0.196
NCI-H596; first compound 0.002 µM
  relative viability: 0.343
NCI-H596; first compound 0.006325 µM
  relative viability: 0.404
NCI-H596; first compound 0.06325 µM
  relative viability: 0.275
NCI-H596; first compound 0.2 µM
  relative viability: 0.267
NCI-H647; first compound 0.002 µM
  relative viability: 0.511
NCI-H647; first compound 0.006325 µM
  relative viability: 0.439
NCI-H647; first compound 0.02 µM
  relative viability: 0.249
NCI-H647; first compound 0.06325 µM
  relative viability: 0.0858
NCI-H647; first compound 0.2 µM
  relative viability: 0.0845
NCI-H661; first compound 0.002 µM
  relative viability: 0.357
NCI-H661; first compound 0.006325 µM
  relative viability: 0.344
NCI-H661; first compound 0.02 µM
  relative viability: 0.287
NCI-H661; first compound 0.06325 µM
  relative viability: 0.276
NCI-H661; first compound 0.2 µM
  relative viability: 0.223
NCI-H727; first compound 0.002 µM
  relative viability: 0.427
NCI-H727; first compound 0.006325 µM
  relative viability: 0.399
NCI-H727; first compound 0.02 µM
  relative viability: 0.264
NCI-H727; first compound 0.06325 µM
  relative viability: 0.123
NCI-H727; first compound 0.2 µM
  relative viability: 0.166
NCI-H838; first compound 0.002 µM
  relative viability: 0.48
NCI-H838; first compound 0.006325 µM
  relative viability: 0.441
NCI-H838; first compound 0.02 µM
  relative viability: 0.223
NCI-H838; first compound 0.06325 µM
  relative viability: 0.117
NCI-H838; first compound 0.2 µM
  relative viability: 0.111
PC-3 [JPC-3]; first compound 0.002 µM
  relative viability: 0.756
PC-3 [JPC-3]; first compound 0.006325 µM
  relative viability: 0.726
PC-3 [JPC-3]; first compound 0.02 µM
  relative viability: 0.626
PC-3 [JPC-3]; first compound 0.06325 µM
  relative viability: 0.578
PC-3 [JPC-3]; first compound 0.2 µM
  relative viability: 0.286
SK-LU-1; first compound 0.002 µM
  relative viability: 0.582
SK-LU-1; first compound 0.006325 µM
  relative viability: 0.403
SK-LU-1; first compound 0.02 µM
  relative viability: 0.243
SK-LU-1; first compound 0.06325 µM
  relative viability: 0.161
SK-LU-1; first compound 0.2 µM
  relative viability: 0.121
